# Assay results from US8575114B2, “SGLT-2 inhibitors, methods of making them, and uses thereof” (Albany Molecular Research, Inc., priority 2010, dated 2013).
# Tests used:
# hSGLT-1 = hSGLT-1 (Homo sapiens (Human), UniProt P13866); assay: [14C]AMG uptake inhibition in CHO-K1/hSGLT-1 cells; format: cell-based; details: 4 μM [14C]AMG, 3-hr incubation at 37° C., read-out: SGLT-1, IC50
# Excerpt: (§1) The inhibitory activity of the compounds of this invention against the SGLT-1 or SGLT-2 transporters can be determined by the following assay. The cDNAs for the human genes of SGLT-1 (SLC5A1—solute carrier family 5 sodium/glucose cotransporter member 1; Accession #NM_000343.1) or SGLT-2 (SLC5A2—member 2; Accession #NM_003041.2) were synthesized (OriGene Technologies, Inc.) and sub-cloned into the mammalian expression vector, pcDNA3.1 (Invitrogen Corp., Carlsbad, Calif.) using standard molecular biology techniques. CHO-K1 cells transfected with pcDNA3.1 (Invitrogen Corp., Carlsbad, Calif.) containing either the full-length hSGLT-1 or hSGLT-2 using Lipofectamine 2000 (Invitrogen Corp., Carlsbad, Calif.) were selected for stable incorporation of the construct by resistance to the selective pressure of Geneticin (450 μg/ml; Invitrogen Corp., Carlsbad, Calif.). Monoclonal cell lines isolated by minimal dilution were screened for uptake activity of radiolabled methyl α-D-glucopyranoside ([^14C]AMG), a non-metabolizable glucose analogue, and a single clone for each transporter was selected for maximal transporter activity to be used for evaluating the inhibitory activity of the compounds of this invention. In brief, 35,000 cells (CHO-K1/hSGLT-1 or CHO-K1/hSGLT-2) were plated per well of a black tissue culture treated 96-well plate in Ham's F12 media supplemented with 10% heat inactivated FBS and allowed to attached overnight at 37° C. and 5% CO2. Compounds were serially diluted 3-fold in DMSO generating a nine (9) data point dose response curve for each compound. Two replicates were performed per determination. The compounds were then diluted into Uptake Buffer (10 mM Hepes, 5 mM Tris, 137 mM NaCl, 5.4 mM KCl, 2.8 mM CaCl2, and 1.2 mM MgSO4, pH 7.4) with a final DMSO concentration of 0.9% (v/v). After the overnight incubation and prior to compound treatment, the cells were washed twice with Sodium Free Buffer in which the sodium chloride was replaced with 137 mM Choline Chloride, and then incubated with 4 μM [^14C]AMG in Uptake Buffer in the presence or absence of diluted compound. Following a 3-hr incubation at 37° C. and 5% CO2, the uptake reaction was stopped by washing the cells three (3) times with ice-cold D-PBS and then lysing the cells with 50 μl of Microscint-20. After 15-min, the amount of radioactivity that was incorporated into the cells was quantified using a Microbeta reader. Data were fit to an empirical four-parameter model to determine the inhibitor concentration at half-maximal response (IC50). The assay window was established by control wells incubated with [^14C]AMG in the presence or absence of sodium. A dose response curve for phlorizin was generated on every plate as a positive control.
# hSGLT-2 = hSGLT-2 (Homo sapiens (Human), UniProt P31639); assay: [14C]AMG uptake inhibition in CHO-K1/hSGLT-2 cells; format: cell-based; details: 4 μM [14C]AMG, 3-hr incubation at 37° C., read-out: SGLT2, IC50
# Sequence of hSGLT-2 (P31639 whole entry): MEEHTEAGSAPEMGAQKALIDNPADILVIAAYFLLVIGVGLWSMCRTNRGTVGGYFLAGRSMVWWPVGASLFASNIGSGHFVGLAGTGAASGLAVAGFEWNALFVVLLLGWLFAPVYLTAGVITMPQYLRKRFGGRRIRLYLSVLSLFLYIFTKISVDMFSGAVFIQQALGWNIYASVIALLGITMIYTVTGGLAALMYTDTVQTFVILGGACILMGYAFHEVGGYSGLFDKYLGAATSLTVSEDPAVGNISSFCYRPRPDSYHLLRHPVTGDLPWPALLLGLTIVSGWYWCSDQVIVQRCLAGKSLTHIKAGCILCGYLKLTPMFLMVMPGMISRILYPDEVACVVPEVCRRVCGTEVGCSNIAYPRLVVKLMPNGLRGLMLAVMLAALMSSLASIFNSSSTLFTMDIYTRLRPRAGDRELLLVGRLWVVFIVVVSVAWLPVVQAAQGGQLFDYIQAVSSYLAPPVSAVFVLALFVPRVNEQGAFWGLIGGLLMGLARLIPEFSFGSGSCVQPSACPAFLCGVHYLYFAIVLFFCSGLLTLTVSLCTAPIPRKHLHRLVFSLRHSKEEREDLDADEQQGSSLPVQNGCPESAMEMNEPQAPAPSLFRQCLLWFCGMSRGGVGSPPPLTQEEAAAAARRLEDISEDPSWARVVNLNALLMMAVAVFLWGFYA
# Description: as §1, with “The cDNAs for the human genes of SGLT-1 (SLC5A1—solute carrier family 5 sodium/glucose cotransporter member 1; Accession #NM_000343.1) or SGLT-2 (SLC5A2—member 2; Accession #NM_003041.2) were synthesized (OriGene Technologies, Inc.) and sub-cloned into the mammalian expression vector, pcDNA3.1 (Invitrogen Corp., Carlsbad, Calif.) using standard molecular biology techniques.” left out, “The compounds were then diluted into Uptake Buffer (10 mM Hepes, 5 mM Tris, 137 mM NaCl, 5.4 mM KCl, 2.8 mM CaCl2, and 1.2 mM MgSO4, pH 7.4) with a final DMSO concentration of 0.9% (v/v). After the overnight incubation and prior to compound treatment, the cells were washed twice with Sodium Free Buffer in which the sodium chloride was replaced with 137 mM Choline Chloride, and then incubated with 4 μM [^14C]AMG in Uptake Buffer in the presence or absence of diluted compound.” left out, “After 15-min, the amount of radioactivity that was incorporated into the cells was quantified using a Microbeta reader.” left out
# Sequence of hSGLT-1 (P13866 whole entry): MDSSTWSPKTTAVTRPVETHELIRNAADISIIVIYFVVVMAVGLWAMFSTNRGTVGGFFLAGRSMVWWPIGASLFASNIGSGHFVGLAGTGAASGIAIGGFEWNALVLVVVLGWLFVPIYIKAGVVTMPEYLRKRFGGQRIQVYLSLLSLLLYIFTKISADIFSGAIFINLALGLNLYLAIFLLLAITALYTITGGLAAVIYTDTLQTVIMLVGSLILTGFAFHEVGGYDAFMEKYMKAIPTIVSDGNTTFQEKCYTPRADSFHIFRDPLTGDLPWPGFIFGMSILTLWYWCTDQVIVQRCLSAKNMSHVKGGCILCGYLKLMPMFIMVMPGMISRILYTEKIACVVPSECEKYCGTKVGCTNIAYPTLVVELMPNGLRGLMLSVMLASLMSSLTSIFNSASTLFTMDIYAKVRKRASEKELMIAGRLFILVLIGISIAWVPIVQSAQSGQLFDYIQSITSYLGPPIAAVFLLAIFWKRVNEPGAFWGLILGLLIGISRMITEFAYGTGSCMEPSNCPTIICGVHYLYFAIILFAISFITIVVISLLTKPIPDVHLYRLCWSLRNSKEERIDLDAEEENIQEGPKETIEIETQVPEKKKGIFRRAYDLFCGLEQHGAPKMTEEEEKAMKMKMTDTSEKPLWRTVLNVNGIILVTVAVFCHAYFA
IC50 (hSGLT-1),IC50 (hSGLT-2),SMILES
6250 nM,329 nM,"O=C1CN(c2ccc(Cc3cc([C@@H]4O[C@H](CO)[C@@H](O)[C@H](O)[C@H]4O)ccc3Cl)cc2)C(=O)N1C(c1ccccc1)(c1ccccc1)c1ccccc1 [III-1, 1-(4-(2-chloro-5-((2S,3R,4R,5S,6R)-3,4,5-trihydroxy-6-(hydroxymethyl)tetrahydro-2H-pyran-2-yl)benzyl)phenyl)-3-tritylimidazolidine-2,4-dione]"
83 nM,148 nM,"CN1CC(=O)N(c2ccc(Cc3cc([C@@H]4O[C@H](CO)[C@@H](O)[C@H](O)[C@H]4O)ccc3Cl)cc2)C1=O [III-3, 3-(4-(2-chloro-5-((2S,3R,4R,5S,6R)-3,4,5-trihydroxy-6-(hydroxymethyl)tetrahydro-2H-pyran-2-yl)benzyl)phenyl)-1-methylimidazolidine-2,4-dione]"
17500 nM,11.4 nM,"CCN1C(=O)CN(c2ccc(Cc3cc([C@@H]4O[C@H](CO)[C@@H](O)[C@H](O)[C@H]4O)ccc3Cl)cc2)C1=O [III-2, 1-(4-(2-chloro-5-((2S,3R,4R,5S,6R)-3,4,5-trihydroxy-6-(hydroxymethyl)tetrahydro-2H-pyran-2-yl)benzyl)phenyl)-3-ethylimidazolidine-2,4-dione]"
> 90000 nM,991 nM,"O=c1n(Cc2cc([C@@H]3O[C@H](CO)[C@@H](O)[C@H](O)[C@H]3O)ccc2Cl)nc2ccc(C(F)(F)F)cn12 [I-5, 2-(2-chloro-5-((2S,3R,4R,5S,6R)-3,4,5-trihydroxy-6-(hydroxymethyl)tetrahydro-2H-pyran-2-yl)benzyl)-6-(trifluoromethyl)-[1,2,4]triazolo[4,3-a]pyridin-3(2H)-one]"
> 90000 nM,489 nM,"CN1C(=O)N(c2ccc(Cc3cc([C@@H]4O[C@H](CO)[C@@H](O)[C@H](O)[C@H]4O)ccc3Cl)cc2)C(C)(C)C1=O [III-5, 1-(4-(2-chloro-5-((2S,3R,4R,5S,6R)-3,4,5-trihydroxy-6-(hydroxymethyl)tetrahydro-2H-pyran-2-yl)benzyl)phenyl)-3,5,5-trimethylimidazolidine-2,4-dione]"
71500 nM,542 nM,"O=c1c2ccoc2ccn1Cc1cc([C@@H]2O[C@H](CO)[C@@H](O)[C@H](O)[C@H]2O)ccc1Cl [II-2, 5-(2-chloro-5-((2S,3R,4R,5S,6R)-3,4,5-trihydroxy-6-(hydroxymethyl)tetrahydro-2H-pyran-2-yl)benzyl)furo[3,2-c]pyridin-4(5H)-one]"
> 90000 nM,36.6 nM,"Cc1cc2nn(Cc3cc([C@@H]4O[C@H](CO)[C@@H](O)[C@H](O)[C@H]4O)ccc3Cl)c(=O)n2cc1Cl [I-12, 6-chloro-2-(2-chloro-5-((2S,3R,4R,5S,6R)-3,4,5-trihydroxy-6-(hydroxymethyl)tetrahydro-2H-pyran-2-yl)benzyl)-7-methyl-[1,2,4]triazolo[4,3-a]pyridin-3(2H)-one]"
–,222 nM,"O=c1n(Cc2cc([C@@H]3O[C@H](CO)[C@@H](O)[C@H](O)[C@H]3O)ccc2Cl)nc2ccc(F)cn12 [I-11, 2-(2-chloro-5-((2S,3R,4R,5S,6R)-3,4,5-trihydroxy-6-(hydroxymethyl)tetrahydro-2H-pyran-2-yl)benzyl)-6-fluoro-[1,2,4]triazolo[4,3-a]pyridin-3(2H)-one]"
67400 nM,129 nM,"Cc1ccc2nn(Cc3cc([C@@H]4O[C@H](CO)[C@@H](O)[C@H](O)[C@H]4O)ccc3Cl)c(=O)n2c1 [I-2, 2-(2-chloro-5-((2S,3R,4R,5S,6R)-3,4,5-trihydroxy-6-(hydroxymethyl)tetrahydro-2H-pyran-2-yl)benzyl)-6-methyl-[1,2,4]triazolo[4,3-a]pyridin-3(2H)-one]"
> 90000 nM,145 nM,"O=c1n(Cc2cc([C@@H]3O[C@H](CO)[C@@H](O)[C@H](O)[C@H]3O)ccc2Cl)nc2ccc(CO)cn12 [I-6, 2-(2-chloro-5-((2S,3R,4R,5S,6R)-3,4,5-trihydroxy-6-(hydroxymethyl)tetrahydro-2H-pyran-2-yl)benzyl)-6-(hydroxymethyl)-[1,2,4]triazolo[4,3-a]pyridin-3(2H)-one]"
61200 nM,81.1 nM,"O=c1n(Cc2cc([C@@H]3O[C@H](CO)[C@@H](O)[C@H](O)[C@H]3O)ccc2Cl)nc2ccc(Cl)cn12 [I-8, 6-chloro-2-(2-chloro-5-((2S,3R,4R,5S,6R)-3,4,5-trihydroxy-6-(hydroxymethyl)tetrahydro-2H-pyran-2-yl)benzyl)-[1,2,4]triazolo[4,3-a]pyridin-3(2H)-one]"
24200 nM,82.8 nM,"O=c1n(Cc2cc([C@@H]3O[C@H](CO)[C@@H](O)[C@H](O)[C@H]3O)ccc2Cl)nc2ccccn12 [I-1, 2-(2-chloro-5-((2S,3R,4R,5S,6R)-3,4,5-trihydroxy-6-(hydroxymethyl)tetrahydro-2H-pyran-2-yl)benzyl)-[1,2,4]triazolo[4,3-a]pyridin-3(2H)-one]"
45600 nM,94.8 nM,"O=c1n(Cc2cc([C@@H]3O[C@H](CO)[C@@H](O)[C@H](O)[C@H]3O)ccc2Cl)nc2ccc(Br)cn12 [I-10, 6-bromo-2-(2-chloro-5-((2S,3R,4R,5S,6R)-3,4,5-trihydroxy-6-(hydroxymethyl)tetrahydro-2H-pyran-2-yl)benzyl)-[1,2,4]triazolo[4,3-a]pyridin-3(2H)-one]"
> 90000 nM,226 nM,"OC[C@H]1O[C@@H](c2ccc(Cl)c(Cc3ccc4ncnn4c3)c2)[C@H](O)[C@@H](O)[C@@H]1O [II-1, (2S,3R,4R,5S,6R)-2-(3-([1,2,4]triazolo[1,5-a]pyridin-6-ylmethyl)-4-chlorophenyl)-6-(hydroxymethyl)tetrahydro-2H-pyran-3,4,5-triol]"
–,109 nM,"Cc1ccn2c(=O)n(Cc3cc([C@@H]4O[C@H](CO)[C@@H](O)[C@H](O)[C@H]4O)ccc3Cl)nc2c1 [I-9, 2-(2-chloro-5-((2S,3R,4R,5S,6R)-3,4,5-trihydroxy-6-(hydroxymethyl)tetrahydro-2H-pyran-2-yl)benzyl)-7-methyl-[1,2,4]triazolo[4,3-a]pyridin-3(2H)-one]"
> 90000 nM,170 nM,"O=c1n(Cc2cc([C@@H]3O[C@H](CO)[C@@H](O)[C@H](O)[C@H]3O)ccc2Cl)nc2cc(CO)ccn12 [I-14, 2-(2-chloro-5-((2S,3R,4R,5S,6R)-3,4,5-trihydroxy-6-(hydroxymethyl)tetrahydro-2H-pyran-2-yl)benzyl)-7-(hydroxymethyl)-[1,2,4]triazolo[4,3-a]pyridin-3(2H)-one]"

SMILES,IC50 (hSGLT-1),IC50 (hSGLT-2)
"CC(C)N1C(=O)CN(c2ccc(Cc3cc([C@@H]4O[C@H](CO)[C@@H](O)[C@H](O)[C@H]4O)ccc3Cl)cc2)C1=O [III-4, 1-(4-(2-chloro-5-((2S,3R,4R,5S,6R)-3,4,5-trihydroxy-6-(hydroxymethyl)tetrahydro-2H-pyran-2-yl)benzyl)phenyl)-3-isopropylimidazolidine-2,4-dione]",35400 nM,23.6 nM
